# Measurements from US20120220603A1, “SUBSTITUTED HETEROCYCLIC DERIVATIVES FOR THE TREATMENT OF PAIN AND EPILEPSY” (ZALICUS PHARMACEUTICALS LTD., priority 2009, published 2012).
# Experiments:
# human Nav1.5 channel = biological target: T1, human Nav1.5 channel (Homo sapiens, UniProt Q14524); test: NaV1.5 sodium channel screening assay, PatchXpress automated electrophysiology, cardiac action potential waveform 1 Hz; format: cell-based; details: cardiac action potential waveform at 1 Hz; HEK cells; read-out: HNAv 1.5 Cardiac AP 1 Hz IC50
# T1 construct: expressed in transfected cells; host or cells: HEK cells
# T1 sequence (Q14524 whole entry): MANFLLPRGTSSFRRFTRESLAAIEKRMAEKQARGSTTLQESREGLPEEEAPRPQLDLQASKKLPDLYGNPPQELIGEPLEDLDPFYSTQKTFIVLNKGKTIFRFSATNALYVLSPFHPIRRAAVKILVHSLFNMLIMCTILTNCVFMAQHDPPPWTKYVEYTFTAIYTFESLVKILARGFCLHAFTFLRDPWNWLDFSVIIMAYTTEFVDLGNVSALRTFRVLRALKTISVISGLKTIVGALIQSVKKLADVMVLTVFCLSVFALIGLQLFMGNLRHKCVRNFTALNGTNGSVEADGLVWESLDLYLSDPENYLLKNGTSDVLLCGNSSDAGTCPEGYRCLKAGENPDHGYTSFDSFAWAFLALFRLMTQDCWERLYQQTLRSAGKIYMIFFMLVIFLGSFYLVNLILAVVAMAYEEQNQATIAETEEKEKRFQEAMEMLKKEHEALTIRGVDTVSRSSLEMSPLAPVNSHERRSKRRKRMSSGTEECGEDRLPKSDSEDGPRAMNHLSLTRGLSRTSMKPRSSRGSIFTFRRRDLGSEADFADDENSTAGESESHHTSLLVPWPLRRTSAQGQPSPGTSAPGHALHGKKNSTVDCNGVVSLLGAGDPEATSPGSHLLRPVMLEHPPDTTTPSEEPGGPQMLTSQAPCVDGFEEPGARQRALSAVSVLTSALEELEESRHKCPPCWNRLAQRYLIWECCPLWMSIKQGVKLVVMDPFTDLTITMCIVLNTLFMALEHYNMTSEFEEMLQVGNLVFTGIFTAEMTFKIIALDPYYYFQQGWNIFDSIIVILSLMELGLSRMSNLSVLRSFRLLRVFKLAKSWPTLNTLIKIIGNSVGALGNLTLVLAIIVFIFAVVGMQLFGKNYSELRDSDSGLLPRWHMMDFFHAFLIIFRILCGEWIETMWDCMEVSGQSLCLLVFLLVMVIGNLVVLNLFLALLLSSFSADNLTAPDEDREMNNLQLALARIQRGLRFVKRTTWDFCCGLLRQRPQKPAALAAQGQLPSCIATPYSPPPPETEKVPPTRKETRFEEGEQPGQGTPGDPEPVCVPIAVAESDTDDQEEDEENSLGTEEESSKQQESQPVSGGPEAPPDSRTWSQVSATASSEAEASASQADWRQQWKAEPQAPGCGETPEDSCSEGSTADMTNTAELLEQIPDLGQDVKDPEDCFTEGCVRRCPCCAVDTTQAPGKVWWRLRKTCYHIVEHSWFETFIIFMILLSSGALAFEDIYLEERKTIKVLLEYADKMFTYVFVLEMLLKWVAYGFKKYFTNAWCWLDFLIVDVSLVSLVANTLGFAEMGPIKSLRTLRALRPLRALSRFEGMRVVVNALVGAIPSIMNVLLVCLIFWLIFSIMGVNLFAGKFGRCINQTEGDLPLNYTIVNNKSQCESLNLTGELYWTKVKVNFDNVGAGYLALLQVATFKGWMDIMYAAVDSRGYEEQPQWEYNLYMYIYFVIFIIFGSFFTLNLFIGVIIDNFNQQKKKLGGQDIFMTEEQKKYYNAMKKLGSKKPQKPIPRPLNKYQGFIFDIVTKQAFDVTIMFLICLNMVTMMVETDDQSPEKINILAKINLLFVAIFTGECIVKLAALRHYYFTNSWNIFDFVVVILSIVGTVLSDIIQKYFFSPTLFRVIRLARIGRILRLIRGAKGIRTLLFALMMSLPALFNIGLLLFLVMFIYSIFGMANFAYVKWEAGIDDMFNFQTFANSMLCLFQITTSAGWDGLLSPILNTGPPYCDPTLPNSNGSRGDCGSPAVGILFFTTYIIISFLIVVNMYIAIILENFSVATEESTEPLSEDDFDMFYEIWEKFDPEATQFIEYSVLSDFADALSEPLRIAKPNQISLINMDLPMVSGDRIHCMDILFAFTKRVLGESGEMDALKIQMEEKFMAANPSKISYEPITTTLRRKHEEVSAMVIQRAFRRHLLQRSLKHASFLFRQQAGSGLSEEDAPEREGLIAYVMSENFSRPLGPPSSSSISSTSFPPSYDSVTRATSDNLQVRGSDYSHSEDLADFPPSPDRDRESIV
# Protocol: Inhibition of the TTX-resistant NaV1.5 sodium channel, a key cardiac ion channel, can have profound effects on the duration and amplitude of the cardiac action potential and can result in arrhythmias and other heart malfunctions. To assess the potential cardiac liability of compounds at an early stage in the drug discovery process, a NaV1.5 sodium channel screening assay is performed on Molecular Device's PatchXpress™ automated electrophysiology platform. Under voltage-calmp conditions, NaV1.5 currents were recorded from HEK cells expressing the human Nav1.5 channel in the absence and presence of increasing concentrations of the test compound to obtain an IC50 value. The external recording solution contained (in mM): 90 TEACl, 50 NaCl, 1.8 CaCl, 1 MgCl2, 10 HEPES, 10 glucose, adjusted to pH 7.4 with TEA-OH and to 300 mOsm with sucrose (if necessary), while the internal patch pipette solution contained (in mM): 129 CsF, 2 MgCl2, 11 EGTA, 10 HEPES, 3 Na2ATP adjusted to pH 7.2 with CsOH and to 290 mOsm with sucrose (if necessary). NaV1.5 channel currents were evoked using a cardiac action potential waveform at 1 Hz, digitized at 31.25 kHz and low-pass filtered at 12 kHz.
# [1] = Mouse rotarod assay (minimal muscular or neurological impairment); format: in vivo; details: mouse, in vivo, mice
# Protocol: To assess a compound's undesirable side effects (toxicity), animals were monitored for overt signs of impaired neurological or muscular function. In mice, the rotarod procedure (Dunham and Miya, J. Am. Pharmacol. Assoc. 46:208-209 (1957)) is used to disclose minimal muscular or neurological impairment (MMI). When a mouse is placed on a rod that rotates at a speed of 6 rpm, the animal can maintain its equilibrium for long periods of time. The animal is considered toxic if it falls off this rotating rod three times during a 1-min period.
# [2] = biological target: T2, CaV3.2 T-type Ca2+ channels expressed in HEK cells (Homo sapiens, UniProt O95180); test: CaV3.2 voltage-clamp electrophysiological assay (fast and slow inactivation); format: cell-based
# T2 construct: expressed in transfected cells; host or cells: HEK cells
# T2 sequence (O95180 whole entry): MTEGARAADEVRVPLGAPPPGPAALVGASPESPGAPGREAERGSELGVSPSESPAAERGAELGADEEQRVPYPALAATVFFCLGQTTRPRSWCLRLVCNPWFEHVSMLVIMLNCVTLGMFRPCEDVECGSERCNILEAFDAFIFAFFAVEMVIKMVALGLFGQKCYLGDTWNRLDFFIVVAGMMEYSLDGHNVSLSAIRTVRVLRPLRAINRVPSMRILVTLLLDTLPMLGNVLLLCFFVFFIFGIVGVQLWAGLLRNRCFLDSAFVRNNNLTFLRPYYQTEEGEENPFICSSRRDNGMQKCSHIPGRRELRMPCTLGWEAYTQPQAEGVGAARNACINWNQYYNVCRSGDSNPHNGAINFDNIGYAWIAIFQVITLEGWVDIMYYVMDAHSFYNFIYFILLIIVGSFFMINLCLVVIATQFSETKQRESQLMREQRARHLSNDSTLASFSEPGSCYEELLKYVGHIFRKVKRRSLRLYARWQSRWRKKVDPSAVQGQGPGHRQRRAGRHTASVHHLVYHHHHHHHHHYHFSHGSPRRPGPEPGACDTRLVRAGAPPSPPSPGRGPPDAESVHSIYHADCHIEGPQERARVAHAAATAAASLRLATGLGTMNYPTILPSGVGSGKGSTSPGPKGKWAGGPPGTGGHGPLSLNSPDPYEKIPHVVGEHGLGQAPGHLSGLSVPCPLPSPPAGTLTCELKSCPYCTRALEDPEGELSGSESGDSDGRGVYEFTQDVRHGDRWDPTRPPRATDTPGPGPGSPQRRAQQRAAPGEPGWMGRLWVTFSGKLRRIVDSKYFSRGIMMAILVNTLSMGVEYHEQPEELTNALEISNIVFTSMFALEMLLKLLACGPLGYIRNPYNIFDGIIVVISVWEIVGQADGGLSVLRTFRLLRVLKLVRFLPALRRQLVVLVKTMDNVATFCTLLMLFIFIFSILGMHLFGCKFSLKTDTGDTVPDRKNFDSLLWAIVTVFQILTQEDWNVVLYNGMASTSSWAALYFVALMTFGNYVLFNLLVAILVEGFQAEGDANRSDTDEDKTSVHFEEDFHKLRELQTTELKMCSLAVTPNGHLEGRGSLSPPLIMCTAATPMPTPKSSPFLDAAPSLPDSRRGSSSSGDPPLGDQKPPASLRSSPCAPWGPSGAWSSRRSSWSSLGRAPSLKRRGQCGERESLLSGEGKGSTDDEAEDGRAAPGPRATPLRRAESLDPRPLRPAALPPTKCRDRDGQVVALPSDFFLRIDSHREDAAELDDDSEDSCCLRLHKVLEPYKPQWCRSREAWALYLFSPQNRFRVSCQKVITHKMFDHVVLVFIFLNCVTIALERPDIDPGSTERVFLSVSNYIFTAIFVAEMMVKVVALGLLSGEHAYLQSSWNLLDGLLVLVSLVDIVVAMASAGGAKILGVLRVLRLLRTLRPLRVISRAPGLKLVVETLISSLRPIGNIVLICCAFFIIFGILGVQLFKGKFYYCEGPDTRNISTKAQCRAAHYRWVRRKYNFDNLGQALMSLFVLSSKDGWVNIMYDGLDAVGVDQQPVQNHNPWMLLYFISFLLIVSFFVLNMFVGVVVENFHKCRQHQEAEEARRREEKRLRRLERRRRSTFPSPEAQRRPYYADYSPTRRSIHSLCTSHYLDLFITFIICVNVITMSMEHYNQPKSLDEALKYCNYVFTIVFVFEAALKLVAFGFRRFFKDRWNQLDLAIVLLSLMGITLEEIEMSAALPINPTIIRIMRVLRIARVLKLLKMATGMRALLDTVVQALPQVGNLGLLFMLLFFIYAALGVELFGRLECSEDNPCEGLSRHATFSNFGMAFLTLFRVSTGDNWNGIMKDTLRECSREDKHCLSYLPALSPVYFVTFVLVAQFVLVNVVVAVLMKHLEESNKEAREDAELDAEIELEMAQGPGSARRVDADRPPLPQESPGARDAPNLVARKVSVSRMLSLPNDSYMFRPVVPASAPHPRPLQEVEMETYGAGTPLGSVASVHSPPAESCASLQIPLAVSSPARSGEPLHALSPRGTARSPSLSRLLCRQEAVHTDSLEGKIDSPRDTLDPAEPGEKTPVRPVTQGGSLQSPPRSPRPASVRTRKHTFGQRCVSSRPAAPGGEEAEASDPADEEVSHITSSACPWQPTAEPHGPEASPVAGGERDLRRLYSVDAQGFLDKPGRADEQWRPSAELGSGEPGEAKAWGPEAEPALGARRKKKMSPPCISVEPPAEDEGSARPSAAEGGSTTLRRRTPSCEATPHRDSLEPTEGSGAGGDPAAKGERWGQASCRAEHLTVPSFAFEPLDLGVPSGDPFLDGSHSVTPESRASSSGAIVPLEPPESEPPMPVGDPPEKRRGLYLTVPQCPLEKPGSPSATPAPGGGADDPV
# Text: Prior to recording currents from CaV3.2 T-type Ca^2+ channels expressed in HEK cells, the culture media was replaced with extracellular solution (ECS) containing (in mM): 142 CsCl, 10 D-glucose, 2 CaCl2, 1 MgCl2, 10 HEPES, pH adjusted to 7.4 with CsOH. Borosilicate glass patch pipettes, pulled on a P-97 micropipette puller (Sutter Instruments, Novato, Calif.) with typical resistances of 2-4 MW, were backfilled with intracellular solution containing (in mM): 126.5 Cs-methanesulphonate, 2 MgCl2, 10 HEPES, 11 EGTA, 2 Na-ATP, pH adjusted to 7.3 CsOH. […] were recorded in the whole-cell configuration at room temperature (˜21° C.) using an Axopatch 200B (Molecular Devices, Sunnyvale, Calif.) patch-clamp amplifier. Recordings were low-pass filtered at 1 kHz (−3 dB 4-pole Bessel filter), digitized at 2 kHz with a Digidata 1322A interface (Molecular Devices), and acquired using pClamp 9.2 (Molecular Devices). No leak subtraction was used. Test compounds, prepared as 30 mM stock solutions in DMSO and diluted in extracellular buffer, were applied through a gravity driven multi-barrelled array of capillaries (24 gauge) connected to reservoirs controlled by solenoid valves. The effects of compounds on CaV3.2 slow and fast inactivation were evaluated using four different voltage protocols. The voltage dependence of fast and slow channel inactivation was examined using a two pulse protocol. Data were analyzed and fitted using OriginPro v.7.5 (OriginLab, Northampton, Mass.) software.
SMILES,IC50 (human Nav1.5 channel),TD50 [1],Fraction of current recovered at 5.1 s interval ([2]; 5.1 s interval),Fraction current remaining at −40 mV ([2]; at −40 mV),"V1/2 slow inactivation ([2]; voltage-dependence of half inactivation, HEK cells, whole-cell)"
"O=C(CN1CCNCC1=O)Nc1cc(C(F)(F)F)cc(C(F)(F)F)c1 [Compound 1, N-(3,5-bis(trifluoromethyl)phenyl)-2-(2-oxopiperazin-1-yl)acetamide]",100 µM,300 mg/kg,,,
"O=C1CN(CC(=O)Nc2cc(C(F)(F)F)cc(C(F)(F)F)c2)CCN1 [Compound 9, N-(3,5-bis(trifluoromethyl)phenyl)-2-(3-oxopiperazin-1-yl)acetamide]",80 µM,,*0.80,**0.32,**−83 mV
